# Data taken from patent US5654451A, “Amino acids and peptides having modified C-terminals and modified N-terminals” (Magainin Pharmaceuticals Inc., priority 1995, dated 1997).
# Values joined by “and” are separate entries in the source; they are usually repeats but may differ in a detail not shown here. Identical values can stand only once.
# Legend:
# Assay in all cases: Antimicrobial assay (MIC, microtiter broth dilution)
# Format in all cases: cell-based
# P. aeruginosa = conditions: for MIC Psuedo: Table VI; for MIC P aeruginosa: Table I, P. aeruginosa ATCC 27853
# Method: (§1) The procedure for the antimicrobial assay is based upon the guidelines of the National Committee for Clinical Laboratory Standards, Document M7-T2, Volume 8, No. 8, 1988.
# (§2) 1-5×10^5 CFUs/ml of either S. aureus ATCC 25923, E. coli ATCC 25922, P. aeruginosa ATCC 27853, or C. albicans were added to the wells in full strength Mueller Hinton broth (BBL 11443) from a mid-log culture. The inoculum is standardized spectrophotometrically at 600 nm and is verified by colony counts. The plates are incubated for 16-20 hours at 37° C., and the minimal inhibitory concentrations (MIC) for the compounds are determined. Minimal inhibitory concentration is defined as the lowest concentration of amino acid or peptide which produces a clear well in the microtiter plate.
# C. albicans = conditions: for MIC Candida: Table VI; for MIC C. albicans: Table I
# Method: as §1, §2
# S. aureus = conditions: for MIC Staph: Table VI; for MIC S. aureus: Table I, S. aureus ATCC 25923
# Method: as §1, §2
# E. coli = test system: E. coli
# Method: as §1, §2
molecule,measurement,setting,value
β-Guanidino-propionyl dodecylamide [Compound 37],MIC Psuedo,P. aeruginosa,16 µg/mL
same,MIC Candida,C. albicans,4 µg/mL
same,MIC Staph,S. aureus,1 µg/mL
same,MIC E. coli,E. coli; Table VI,4 to 8 µg/mL
"CCCCCCCCN(CCCCCCCC)C(=O)C(Cc1ccc(F)cc1)NC(=N)N (stereo not drawn) [Compound 83, N^α -Amidino-p-F-Phe-diocytlamide]",MIC Psuedo,P. aeruginosa,128 µg/mL
same,MIC Candida,C. albicans,2 µg/mL
same,MIC Staph,S. aureus,2 µg/mL
same,MIC E. coli,E. coli; Table VI,64 µg/mL
N-α-amidino phenylalanyl heptylamide [Compound 27],MIC P aeruginosa,P. aeruginosa,128 µg/mL
same,MIC C. albicans,C. albicans,64 µg/mL
same,MIC S. aureus,S. aureus,8 µg/mL
same,MIC E. coli,"E. coli; Table I, E. coli ATCC 25922",128 µg/mL
"CCCCCCCCN(CCCCCCCC)C(=O)C(Cc1ccccc1)NCc1ncc[nH]1 (stereo not drawn) [Compound 80, N^α -(Imidazole-2-methyl)-Phe-dioctylamide]",MIC Psuedo,P. aeruginosa,> 256 µg/mL
same,MIC Candida,C. albicans,> 256 µg/mL
same,MIC Staph,S. aureus,2 µg/mL
same,MIC E. coli,E. coli; Table VI,> 256 µg/mL
"CCCCCCCCCCCCNC(=O)c1ccc(CNC(=N)N)cc1 [Compound 38, P-Guanidino-methyl-benzoyl-dodecylamide]",MIC Psuedo,P. aeruginosa,64 µg/mL
same,MIC Candida,C. albicans,4 µg/mL
same,MIC Staph,S. aureus,1 to 2 µg/mL
same,MIC E. coli,E. coli; Table VI,16 µg/mL
"NC(N)=NCCCC(N)C(=O)Nc1ccc(C=Cc2ccc(NC(=O)C(N)CCCN=C(N)N)cc2)cc1 (centres unmarked) [Compound 49, 4,4'-[Di-Arg] diaminostilbene]",MIC Psuedo,P. aeruginosa,128 µg/mL
same,MIC Candida,C. albicans,64 µg/mL
same,MIC Staph,S. aureus,8 µg/mL
same,MIC E. coli,E. coli; Table VI,256 µg/mL
"CCCCCCCNC(=O)C(Cc1ccc(C(=N)N)cc1)NC(=N)N (stereo not drawn) [Compound 29, p-guanyl-N-α-amidino-phenylalanyl heptylamide]",MIC P aeruginosa,P. aeruginosa,> 256 µg/mL
same,MIC C. albicans,C. albicans,256 µg/mL
same,MIC S. aureus,S. aureus,64 µg/mL
same,MIC E. coli,"E. coli; Table I, E. coli ATCC 25922",> 256 µg/mL
N-α-amidino phenylalanyl tetradecylamide [Compound 33],MIC P aeruginosa,P. aeruginosa,> 256 µg/mL
same,MIC C. albicans,C. albicans,16 µg/mL
same,MIC S. aureus,S. aureus,8 µg/mL
same,MIC E. coli,"E. coli; Table I, E. coli ATCC 25922",128 µg/mL
β-Guanidino-propionyl adamantanamide [Compound 82],MIC Psuedo,P. aeruginosa,> 256 µg/mL
same,MIC Candida,C. albicans,> 256 µg/mL
same,MIC Staph,S. aureus,64 µg/mL
same,MIC E. coli,E. coli; Table VI,> 256 µg/mL
"CCCCCCCCN(CCCCCCCC)C(=O)CCNC(=O)CC(O)CNC(=N)N (stereo not drawn) [Compound 87, γ-Guanidino-β-hydroxy butyryl-β-Ala-dioctylamide]",MIC Psuedo,P. aeruginosa,16 µg/mL
same,MIC Candida,C. albicans,0.5 µg/mL
same,MIC Staph,S. aureus,2 µg/mL
same,MIC E. coli,E. coli; Table VI,4 µg/mL
"CCCCCCCCN(CCCCCCCC)C(=O)C(Cc1c[nH]c2ccccc12)NC(=N)N (stereo not drawn) [Compound 66, N^α -Amidino-Trp-dioctylamide]",MIC Psuedo,P. aeruginosa,256 µg/mL
same,MIC Candida,C. albicans,16 µg/mL
same,MIC Staph,S. aureus,8 µg/mL
same,MIC E. coli,E. coli; Table VI,256 µg/mL
"NC(N)=NCCCC(N)C(=O)NCCCCCCCCCCCCNC(=O)C(N)CCCN=C(N)N (centres unmarked) [Compound 8, 1,12-[di-arginyl]diaminododecane]",MIC P aeruginosa,P. aeruginosa,> 256 µg/mL
same,MIC C. albicans,C. albicans,> 256 µg/mL
same,MIC S. aureus,S. aureus,128 µg/mL
same,MIC E. coli,"E. coli; Table I, E. coli ATCC 25922",> 256 µg/mL
"CCCCCCCCN(CCCCCCCC)C(=O)C(Cc1cnc[nH]1)NC(=N)N (stereo not drawn) [Compound 78, N^α -Amidino-His-dioctylamide]",MIC Psuedo,P. aeruginosa,8 µg/mL
same,MIC Candida,C. albicans,1 µg/mL
same,MIC Staph,S. aureus,1 µg/mL
same,MIC E. coli,E. coli; Table VI,4 µg/mL
"N=C(N)NC(Cc1ccccc1)C(=O)Nc1ccc(C=Cc2ccc(NC(=O)C(Cc3ccccc3)NC(=N)N)cc2)cc1 (stereo not drawn) [Compound 47, 4,4'-[Di-(N^α -amidino-Phe)] diaminostilbene]",MIC Psuedo,P. aeruginosa,32 µg/mL
same,MIC Candida,C. albicans,256 µg/mL
same,MIC Staph,S. aureus,05 to 10 µg/mL
same,MIC E. coli,E. coli; Table VI,16 µg/mL
N^α -Amidino-Phe-didecylamide [Compound 69],MIC Psuedo,P. aeruginosa,> 256 µg/mL and 256 µg/mL
same,MIC Candida,C. albicans,32 µg/mL and 64 µg/mL
same,MIC E. coli,E. coli; Table VI,16 µg/mL
